Experiments:
[1] = Screening test 4: recovery of herbicide active ingredient from mulch (methanol extraction, HPLC); format: physicochemical
Description: Screening test 4: Recovery of functional material from particulate material
In this experimental study the herbicide active ingredient was analyzed as the content of functional material (herbicide) as the active ingredient in the particulate material (mulch).
Assay protocol: Ten milliliters of 100% methanol was used to extract the herbicide actives, Pendimethalin and Dimethenamid-P from one gram of mulch. Methanol and mulch were added to a vial and shaken at approximately 180 rpm for 30 minutes on a shaker table. Methanol was filtered from mulch and analyzed for actives via HPLC. Active ingredient recovery was recorded as weight percent. […]
Table 2 and Table 3 show the results of an experiment related to the recovery of herbicide active ingredient from particulate material after providing functional herbicide coating. Table 2 and Table 3 show active ingredient releasing from the mulch at one month exposure compared to non-exposed mulch in warehouse.

[2] = test system: red imported fire ant (Solenopsis invicta) workers; conditions: rate evaluation, 0.5 to 3 X label rate
Description: Testing with red imported fire ant (Solenopsis invicta, RIFA), Argentine ant (Linepthema humile), and odorous house ant (OHA) workers. Ten inch plastic arenas (inside walls coated with Fluon® to prevent escape) were provided a layer of moistened play sand. A band of mulch was placed across the arena near one side. Between the closest side and the mulch, a micro-centrifuge tube with a universal ant diet was placed. In the larger open area of the arena was placed a water vial and a small weigh boat with either corn grit+soybean oil (RIFA) or 20% honey water (Argentine ant and OHA). Approximately 100 ants were placed in each arena. Mortality was evaluated at 6 or 7 days.

[3] = Black mulch, Warehouse (non-exposed)
[4] = Natural mulch, Warehouse (non-exposed)
[5] = Red mulch, Warehouse (non-exposed)

COC[C@H](C)N(C(=O)CCl)c1c(C)csc1C [dimethenamid-P]
weight percent of dimethenamid-P ([1]; Black mulch, Bottom 1 month): <LOD | weight percent of dimethenamid-P ([1]; Black mulch, Top 1 month): 0.00003 weight percent | weight percent of dimethenamid-P [1, 3]: 0.002 weight percent | weight percent of dimethenamid-P ([1]; Natural mulch, Bottom 1 month): <LOD | weight percent of dimethenamid-P ([1]; Natural mulch, Top 1 month): 0.00004 weight percent | weight percent of dimethenamid-P [1, 4]: 0.00203 weight percent | weight percent of dimethenamid-P ([1]; Red mulch, Bottom 1 month): 0.00000 weight percent | weight percent of dimethenamid-P ([1]; Red mulch, Top 1 month): 0.00002 weight percent | weight percent of dimethenamid-P [1, 5]: 0.00233 weight percent

CN/C(=N/CC1CCOC1)N[N+](=O)[O-] (stereo not shown) [dinotefuran]
effectiveness over the rates tested (conclusion in words) [2]: effective at all rates tested

CCC(CC)Nc1c([N+](=O)[O-])cc(C)c(C)c1[N+](=O)[O-] [pendimethalin]
weight percent of pendimethalin ([1]; Black mulch, Bottom 1 month): 0.00005 weight percent | weight percent of pendimethalin ([1]; Black mulch, Top 1 month): 0.00044 weight percent | weight percent of pendimethalin [1, 3]: 0.0044 weight percent | weight percent of pendimethalin ([1]; Natural mulch, Bottom 1 month): 0.00026 weight percent | weight percent of pendimethalin ([1]; Natural mulch, Top 1 month): 0.00079 weight percent | weight percent of pendimethalin [1, 4]: 0.00674 weight percent | weight percent of pendimethalin ([1]; Red mulch, Bottom 1 month): 0.00026 weight percent | weight percent of pendimethalin ([1]; Red mulch, Top 1 month): 0.00054 weight percent | weight percent of pendimethalin [1, 5]: 0.00302 weight percent
